US9636418B2 (priority 2013, dated 2017)
Read-outs that look alike come from different tables or passages of the source.

Experiments:
Experiment in all cases: cell-based
hNav1.7 [1] = biological target: T1, hNav1.7 (Homo sapiens, UniProt Q15858); conditions: IonWorks Quattro; read-out: IC50 Nav1.7
hNav1.7 [2] = biological target: T1, hNav1.7; type: cell-based; conditions: PatchXpress, read-out: PX hNav1.7 Tonic IC50
hNav1.4 = hNav1.4 (Homo sapiens, UniProt P35499); conditions: for IC50: PatchXpress, read-out: PX hNav1.4 Tonic IC50
hNav1.5 = hNav1.5 (Homo sapiens, UniProt Q14524); conditions: for IC50: PatchXpress, read-out: PX hNav1.5 Tonic IC50
hNav1.5, sequence (Q14524 whole entry): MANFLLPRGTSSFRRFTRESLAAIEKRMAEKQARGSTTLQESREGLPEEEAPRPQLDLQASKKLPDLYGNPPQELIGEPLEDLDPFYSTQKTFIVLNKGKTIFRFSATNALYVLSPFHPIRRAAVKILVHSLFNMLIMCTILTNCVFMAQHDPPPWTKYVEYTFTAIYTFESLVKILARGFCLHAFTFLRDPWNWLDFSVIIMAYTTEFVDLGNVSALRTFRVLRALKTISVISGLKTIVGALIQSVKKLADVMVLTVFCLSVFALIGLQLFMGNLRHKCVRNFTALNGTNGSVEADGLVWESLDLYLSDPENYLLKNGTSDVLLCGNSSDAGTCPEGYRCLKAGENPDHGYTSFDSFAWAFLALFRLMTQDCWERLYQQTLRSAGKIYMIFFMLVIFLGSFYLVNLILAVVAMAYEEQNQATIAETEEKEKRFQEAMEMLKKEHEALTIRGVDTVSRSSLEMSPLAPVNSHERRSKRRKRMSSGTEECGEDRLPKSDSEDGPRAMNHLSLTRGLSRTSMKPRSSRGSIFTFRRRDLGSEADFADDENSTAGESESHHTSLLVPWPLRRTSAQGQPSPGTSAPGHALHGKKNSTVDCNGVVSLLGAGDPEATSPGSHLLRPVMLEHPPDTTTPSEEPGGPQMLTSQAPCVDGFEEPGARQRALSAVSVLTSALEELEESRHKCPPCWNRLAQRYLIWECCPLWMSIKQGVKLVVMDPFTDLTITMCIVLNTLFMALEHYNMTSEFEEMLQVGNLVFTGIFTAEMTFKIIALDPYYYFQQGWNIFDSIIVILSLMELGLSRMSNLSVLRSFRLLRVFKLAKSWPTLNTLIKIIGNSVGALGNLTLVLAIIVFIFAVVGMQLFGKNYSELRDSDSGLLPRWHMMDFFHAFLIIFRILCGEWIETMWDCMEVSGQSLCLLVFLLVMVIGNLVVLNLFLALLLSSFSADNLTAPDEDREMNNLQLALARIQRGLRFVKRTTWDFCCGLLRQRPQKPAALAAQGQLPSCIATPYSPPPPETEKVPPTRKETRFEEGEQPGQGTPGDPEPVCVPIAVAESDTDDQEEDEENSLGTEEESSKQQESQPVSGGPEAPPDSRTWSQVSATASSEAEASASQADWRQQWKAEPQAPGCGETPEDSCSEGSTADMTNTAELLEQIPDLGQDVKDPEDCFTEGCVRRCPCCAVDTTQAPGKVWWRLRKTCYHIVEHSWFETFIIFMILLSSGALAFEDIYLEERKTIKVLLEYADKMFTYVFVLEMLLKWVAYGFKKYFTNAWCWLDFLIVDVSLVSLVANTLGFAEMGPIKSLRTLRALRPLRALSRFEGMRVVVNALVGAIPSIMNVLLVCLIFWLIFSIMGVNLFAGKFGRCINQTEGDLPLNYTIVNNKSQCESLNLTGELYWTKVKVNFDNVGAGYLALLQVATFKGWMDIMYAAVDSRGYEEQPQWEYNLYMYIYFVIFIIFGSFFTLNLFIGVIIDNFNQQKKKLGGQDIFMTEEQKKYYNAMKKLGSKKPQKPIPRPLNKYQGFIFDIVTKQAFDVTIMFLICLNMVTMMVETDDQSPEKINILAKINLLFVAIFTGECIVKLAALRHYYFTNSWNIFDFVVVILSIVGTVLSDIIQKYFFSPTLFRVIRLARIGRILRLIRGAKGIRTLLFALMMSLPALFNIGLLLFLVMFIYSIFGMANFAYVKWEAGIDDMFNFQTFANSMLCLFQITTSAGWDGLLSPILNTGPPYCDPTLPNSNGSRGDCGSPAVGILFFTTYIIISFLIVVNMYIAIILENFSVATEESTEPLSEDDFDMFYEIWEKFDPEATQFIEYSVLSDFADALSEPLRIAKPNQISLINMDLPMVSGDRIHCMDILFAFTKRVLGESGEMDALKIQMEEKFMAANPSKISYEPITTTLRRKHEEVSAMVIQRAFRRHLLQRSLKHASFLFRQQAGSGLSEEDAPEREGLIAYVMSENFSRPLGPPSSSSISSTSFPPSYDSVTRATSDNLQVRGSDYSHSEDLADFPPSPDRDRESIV

[3] = * = at high concentrations compound would wash off slowly or not at all

T1 sequence (Q15858 whole entry): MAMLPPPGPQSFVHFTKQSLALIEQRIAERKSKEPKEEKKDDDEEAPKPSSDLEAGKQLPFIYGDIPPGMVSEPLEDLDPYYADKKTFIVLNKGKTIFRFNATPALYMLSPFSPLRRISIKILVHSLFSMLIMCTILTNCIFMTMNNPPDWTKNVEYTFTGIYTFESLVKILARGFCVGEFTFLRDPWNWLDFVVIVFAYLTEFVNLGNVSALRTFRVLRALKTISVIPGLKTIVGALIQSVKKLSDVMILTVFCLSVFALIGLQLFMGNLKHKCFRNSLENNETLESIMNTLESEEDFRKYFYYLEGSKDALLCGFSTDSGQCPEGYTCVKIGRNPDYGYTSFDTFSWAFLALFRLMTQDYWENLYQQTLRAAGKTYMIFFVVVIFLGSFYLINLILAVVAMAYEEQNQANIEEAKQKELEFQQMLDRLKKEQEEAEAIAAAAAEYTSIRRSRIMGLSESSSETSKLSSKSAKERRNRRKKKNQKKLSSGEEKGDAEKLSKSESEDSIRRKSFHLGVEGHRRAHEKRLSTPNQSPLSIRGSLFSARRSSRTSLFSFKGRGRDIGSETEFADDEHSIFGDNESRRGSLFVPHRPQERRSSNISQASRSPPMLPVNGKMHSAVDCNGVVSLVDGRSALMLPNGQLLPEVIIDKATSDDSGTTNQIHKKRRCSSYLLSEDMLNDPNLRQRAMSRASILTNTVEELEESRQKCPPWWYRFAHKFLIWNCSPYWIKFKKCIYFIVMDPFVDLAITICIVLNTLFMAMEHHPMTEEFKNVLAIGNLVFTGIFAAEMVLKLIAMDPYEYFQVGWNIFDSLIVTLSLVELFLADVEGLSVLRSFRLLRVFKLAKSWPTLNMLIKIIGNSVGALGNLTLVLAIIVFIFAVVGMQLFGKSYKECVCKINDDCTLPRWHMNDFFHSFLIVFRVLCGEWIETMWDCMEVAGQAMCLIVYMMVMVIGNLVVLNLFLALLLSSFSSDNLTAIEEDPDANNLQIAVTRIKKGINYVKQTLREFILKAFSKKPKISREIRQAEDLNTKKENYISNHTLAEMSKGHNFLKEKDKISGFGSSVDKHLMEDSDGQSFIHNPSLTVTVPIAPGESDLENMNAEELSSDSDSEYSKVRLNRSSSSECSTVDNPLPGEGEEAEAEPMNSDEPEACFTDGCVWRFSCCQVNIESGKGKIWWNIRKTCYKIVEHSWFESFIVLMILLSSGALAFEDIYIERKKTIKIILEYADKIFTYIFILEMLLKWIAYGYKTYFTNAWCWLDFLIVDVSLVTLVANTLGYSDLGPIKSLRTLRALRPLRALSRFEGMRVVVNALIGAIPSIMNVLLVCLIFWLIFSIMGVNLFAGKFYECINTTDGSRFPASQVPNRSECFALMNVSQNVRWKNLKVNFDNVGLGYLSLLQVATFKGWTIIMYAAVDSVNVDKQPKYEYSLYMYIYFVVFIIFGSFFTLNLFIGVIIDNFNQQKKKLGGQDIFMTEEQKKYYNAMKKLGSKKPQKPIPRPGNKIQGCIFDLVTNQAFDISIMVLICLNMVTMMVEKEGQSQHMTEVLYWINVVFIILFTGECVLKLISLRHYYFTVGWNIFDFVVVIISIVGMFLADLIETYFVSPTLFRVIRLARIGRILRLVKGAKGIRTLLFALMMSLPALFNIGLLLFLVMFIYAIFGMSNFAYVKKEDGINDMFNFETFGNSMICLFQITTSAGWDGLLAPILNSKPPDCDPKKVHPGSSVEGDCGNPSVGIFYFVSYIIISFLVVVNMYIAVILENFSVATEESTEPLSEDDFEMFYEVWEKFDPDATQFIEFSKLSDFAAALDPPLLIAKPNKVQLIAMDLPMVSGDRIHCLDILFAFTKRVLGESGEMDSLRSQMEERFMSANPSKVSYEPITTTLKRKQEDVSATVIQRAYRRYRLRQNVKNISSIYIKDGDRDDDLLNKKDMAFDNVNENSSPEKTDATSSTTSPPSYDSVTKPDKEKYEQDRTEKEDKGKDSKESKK

SMILES | IC50 (hNav1.7 [2]; [3]) [nM] | IC50 (hNav1.4; [3]) [nM] | Nav1.4/Nav1.7 (hNav1.4; ratio of PX IC50 values) | IC50 (hNav1.5; [3]) [nM] | other results
CCCC[C@@H]1NC(=O)[C@H](Cc2c[nH]c3ccccc23)NC(=O)[C@H](CCCCN)NC(=O)[C@H](CCC(N)=O)NC(=O)[C@@H](NC(=O)[C@@H](N)Cc2ccc(O)cc2)CSSC[C@@H]2NC(=O)[C@@H]3CSSC[C@@H](C(=O)N[C@@H](CCCNC(=N)N)C(=O)N[C@@H](CCCCN)C(=O)N[C@H](C(=O)N[C@@H](Cc4c[nH]c5ccccc45)C(N)=O)[C@@H](C)CC)NC(=O)[C@H](Cc4c[nH]c5ccccc45)NC(=O)[C@H](CC(C)C)NC(=O)[C@H](CCCCN)NC(=O)[C@H](CSSC[C@H](NC(=O)[C@H]([C@@H](C)O)NC(=O)[C@H](Cc4c[nH]c5ccccc45)NC1=O)C(=O)N[C@@H](CC(=O)O)C(=O)N[C@@H](CO)C(=O)N[C@@H](CCCCN)C(=O)N[C@@H](CCCNC(=N)N)C(=O)N[C@@H](C)C(=O)N3)NC(=O)[C@H](CCC(=O)O)NC(=O)[C@H](CC(C)C)NC(=O)CNC(=O)[C@H](CCC(=O)O)NC2=O [compound 294] | – | – | – | – | IC50 (hNav1.7 [1]): 24 nM
CCCC[C@@H]1NC(=O)[C@H](Cc2c[nH]c3ccccc23)NC(=O)[C@H](CCCCN)NC(=O)[C@H](CCC(N)=O)NC(=O)[C@@H](NC(=O)[C@H](Cc2ccc(O)cc2)NC(=O)[C@H](N)Cc2ccccc2)CSSC[C@@H]2NC(=O)[C@@H]3CSSC[C@@H](C(=O)N[C@@H](CCCNC(=N)N)C(=O)N[C@@H](CCCCN)C(=O)N[C@H](C(=O)N[C@H](C(N)=O)[C@@H](C)CC)[C@@H](C)CC)NC(=O)[C@H](Cc4c[nH]c5ccccc45)NC(=O)[C@H](CC(C)C)NC(=O)[C@H](CCCCN)NC(=O)[C@H](CSSC[C@H](NC(=O)[C@H]([C@@H](C)O)NC(=O)[C@H](Cc4c[nH]c5ccccc45)NC1=O)C(=O)N[C@@H](CC(=O)O)C(=O)N[C@@H](CO)C(=O)N[C@@H](CCCCN)C(=O)N[C@@H](CCCNC(=N)N)C(=O)N[C@@H](C)C(=O)N3)NC(=O)[C@H](CCCNC(=N)N)NC(=O)[C@H](CC(C)C)NC(=O)CNC(=O)[C@H](CCC(=O)O)NC2=O [compound 374] | 0.351 | 6.8 | 19 | 620 | –
CCCC[C@@H]1NC(=O)[C@H](Cc2c[nH]c3ccccc23)NC(=O)[C@H](CCCCN)NC(=O)[C@H](CCC(N)=O)NC(=O)[C@@H](NC(=O)[C@H](Cc2ccc(O)cc2)NC(=O)CCN)CSSC[C@@H]2NC(=O)[C@@H]3CSSC[C@@H](C(=O)N[C@@H](CCCNC(=N)N)C(=O)N[C@@H](CCCCN)C(=O)N[C@H](C(=O)N[C@H](C(N)=O)[C@@H](C)CC)[C@@H](C)CC)NC(=O)[C@H](Cc4c[nH]c5ccccc45)NC(=O)[C@H](CC(C)C)NC(=O)[C@H](CCCCN)NC(=O)[C@H](CSSC[C@H](NC(=O)[C@H]([C@@H](C)O)NC(=O)[C@H](Cc4c[nH]c5ccccc45)NC1=O)C(=O)N[C@@H](CC(=O)O)C(=O)N[C@@H](CO)C(=O)N[C@@H](CCCCN)C(=O)N[C@@H](CCCNC(=N)N)C(=O)N[C@@H](C)C(=O)N3)NC(=O)[C@H](CCCNC(=N)N)NC(=O)[C@H](CC(C)C)NC(=O)CNC(=O)[C@H](CCC(=O)O)NC2=O [compound 376] | 0.951 | 3.2 | 3 | 700 | –
CCCC[C@@H]1NC(=O)[C@H](Cc2c[nH]c3ccccc23)NC(=O)[C@H](CCCCN)NC(=O)[C@H](CCC(N)=O)NC(=O)[C@@H](NC(=O)[C@H](Cc2ccc(O)cc2)NC(=O)[C@@H](N)CCC(C)C)CSSC[C@@H]2NC(=O)[C@@H]3CSSC[C@@H](C(=O)N[C@@H](CCCNC(=N)N)C(=O)N[C@@H](CCCCN)C(=O)N[C@H](C(=O)N[C@H](C(N)=O)[C@@H](C)CC)[C@@H](C)CC)NC(=O)[C@H](Cc4c[nH]c5ccccc45)NC(=O)[C@H](CC(C)C)NC(=O)[C@H](CCCCN)NC(=O)[C@H](CSSC[C@H](NC(=O)[C@H]([C@@H](C)O)NC(=O)[C@H](Cc4c[nH]c5ccccc45)NC1=O)C(=O)N[C@@H](CC(=O)O)C(=O)N[C@@H](CO)C(=O)N[C@@H](CCCCN)C(=O)N[C@@H](CCCNC(=N)N)C(=O)N[C@@H](C)C(=O)N3)NC(=O)[C@H](CCCNC(=N)N)NC(=O)[C@H](CC(C)C)NC(=O)CNC(=O)[C@H](CCC(=O)O)NC2=O [compound 377] | 0.676 | 8.5 | 13 | 420 | –
CCCC[C@@H]1NC(=O)[C@H](Cc2c[nH]c3ccccc23)NC(=O)[C@H](CCCCN)NC(=O)[C@H](CCC(N)=O)NC(=O)[C@@H](NC(=O)[C@H](Cc2ccc(O)cc2)NC(=O)[C@@H](N)CCc2ccccc2)CSSC[C@@H]2NC(=O)[C@@H]3CSSC[C@@H](C(=O)N[C@@H](CCCNC(=N)N)C(=O)N[C@@H](CCCCN)C(=O)N[C@H](C(=O)N[C@H](C(N)=O)[C@@H](C)CC)[C@@H](C)CC)NC(=O)[C@H](Cc4c[nH]c5ccccc45)NC(=O)[C@H](CC(C)C)NC(=O)[C@H](CCCCN)NC(=O)[C@H](CSSC[C@H](NC(=O)[C@H]([C@@H](C)O)NC(=O)[C@H](Cc4c[nH]c5ccccc45)NC1=O)C(=O)N[C@@H](CC(=O)O)C(=O)N[C@@H](CO)C(=O)N[C@@H](CCCCN)C(=O)N[C@@H](CCCNC(=N)N)C(=O)N[C@@H](C)C(=O)N3)NC(=O)[C@H](CCCNC(=N)N)NC(=O)[C@H](CC(C)C)NC(=O)CNC(=O)[C@H](CCC(=O)O)NC2=O [compound 379] | 0.476 | 4.8 | 10 | 440 | –
C#CC[C@H](N)C(=O)NCCOCCOCCOCCOCCC(=O)NCCCC[C@@H]1NC(=O)[C@@H]2CSSC[C@H](NC(=O)[C@H](Cc3ccc(O)cc3)NC(=O)[C@@H](N)CC#N)C(=O)N[C@@H](CCC(N)=O)C(=O)N[C@@H](CCCCN)C(=O)N[C@@H](Cc3c[nH]c4ccccc34)C(=O)N[C@@H](CCCC)C(=O)N[C@@H](Cc3c[nH]c4ccccc34)C(=O)N[C@@H]([C@@H](C)O)C(=O)N[C@H]3CSSC[C@H](NC(=O)[C@H](CCCNC(=N)N)NC(=O)[C@H](CC(C)C)NC(=O)CNC1=O)C(=O)N[C@@H](CCCCN)C(=O)N[C@@H](CC(C)C)C(=O)N[C@@H](Cc1c[nH]c4ccccc14)C(=O)N[C@H](C(=O)N[C@@H](CCCNC(=N)N)C(=O)N[C@@H](CCCCN)C(=O)N[C@H](C(=O)N[C@H](C(N)=O)[C@@H](C)CC)[C@@H](C)CC)CSSC[C@H](NC(=O)[C@H](C)NC(=O)[C@H](CCCNC(=N)N)NC(=O)[C@H](CCCCN)NC(=O)[C@H](CO)NC(=O)[C@H](CC(=O)O)NC3=O)C(=O)N2 [compound 385] | – | – | – | – | IC50 (hNav1.7 [2]; tonic block): 3.64 nM; Nav1.4/Nav1.7 (hNav1.4; ratio of PX tonic IC50 values): 0; Nav1.5/Nav1.7 (hNav1.5; ratio of PX tonic IC50 values): 0
CCCC[C@@H]1NC(=O)[C@H](Cc2c[nH]c3ccccc23)NC(=O)[C@H](CCCCN)NC(=O)[C@H](CCC(N)=O)NC(=O)[C@@H](NC(=O)[C@H](Cc2ccc(O)cc2)NC(=O)[C@@H](N)Cc2cn(CCOCCOCCOCCOCCOCCOCCOCCOCCOCCOCCOCCNC(=O)CSCc3ccccc3)nn2)CSSC[C@@H]2NC(=O)[C@@H]3CSSC[C@@H](C(=O)N[C@@H](CCCNC(=N)N)C(=O)N[C@@H](CCCCN)C(=O)N[C@H](C(=O)N[C@H](C(N)=O)[C@@H](C)CC)[C@@H](C)CC)NC(=O)[C@H](Cc4c[nH]c5ccccc45)NC(=O)[C@H](CC(C)C)NC(=O)[C@H](CCCCN)NC(=O)[C@H](CSSC[C@H](NC(=O)[C@H]([C@@H](C)O)NC(=O)[C@H](Cc4c[nH]c5ccccc45)NC1=O)C(=O)N[C@@H](CC(=O)O)C(=O)N[C@@H](CO)C(=O)N[C@@H](CCCCN)C(=O)N[C@@H](CCCNC(=N)N)C(=O)N[C@@H](C)C(=O)N3)NC(=O)[C@H](CCCNC(=N)N)NC(=O)[C@H](CC(C)C)NC(=O)CNC(=O)[C@H](CCC(=O)O)NC2=O [compound 427] | 1.4 | 13 | 9 | 1980 | –
CCCC[C@@H]1NC(=O)[C@H](Cc2c[nH]c3ccccc23)NC(=O)[C@H](CCCCN)NC(=O)[C@H](CCC(N)=O)NC(=O)[C@@H](NC(=O)[C@H](Cc2ccc(O)cc2)NC(=O)[C@@H](N)CC#N)CSSC[C@@H]2NC(=O)[C@@H]3CSSC[C@@H](C(=O)N[C@@H](CCCNC(=N)N)C(=O)N[C@@H](CCCCN)C(=O)N[C@@H](CCC(=O)O)C(=O)N[C@H](C(N)=O)[C@@H](C)CC)NC(=O)[C@H](Cc4c[nH]c5ccccc45)NC(=O)[C@H](CC(C)C)NC(=O)[C@H](CCCCN)NC(=O)[C@H](CSSC[C@H](NC(=O)[C@H]([C@@H](C)O)NC(=O)[C@H](Cc4c[nH]c5ccccc45)NC1=O)C(=O)N[C@@H](CC(=O)O)C(=O)N[C@@H](CO)C(=O)N[C@@H](CCCCN)C(=O)N[C@@H](CCCNC(=N)N)C(=O)N[C@@H](C)C(=O)N3)NC(=O)[C@H](CCCNC(=N)N)NC(=O)[C@H](CC(C)C)NC(=O)CNC(=O)[C@H](Cc1cn(CCCOCCOCCOCCOCCOCCOCCOCCOCCOCCOCCN)nn1)NC2=O [compound 443] | 5.62 | 172 | – | 1330 | –
C#CC[C@H](N)C(=O)NCCCC[C@@H]1NC(=O)[C@H](CCCNC(=N)N)NC(=O)[C@H](CCCCN)NC(=O)[C@H](CO)NC(=O)[C@H](CC(=O)O)NC(=O)[C@@H]2CSSC[C@@H]3NC(=O)[C@H](CCCNC(=N)N)NC(=O)[C@H](CC(C)C)NC(=O)CNC(=O)[C@H](CCC(=O)O)NC(=O)[C@H](CSSC[C@H](NC(=O)[C@H](Cc4ccc(O)cc4)NC(=O)[C@@H](N)CC#N)C(=O)N[C@@H](CCC(N)=O)C(=O)N[C@@H](CCCCN)C(=O)N[C@@H](Cc4c[nH]c5ccccc45)C(=O)N[C@@H](CC(C)C)C(=O)N[C@@H](Cc4c[nH]c5ccccc45)C(=O)N[C@@H]([C@@H](C)O)C(=O)N2)NC(=O)[C@H](CSSC[C@@H](C(=O)N[C@@H](CCCNC(=N)N)C(=O)N[C@@H](CCCCN)C(=O)N[C@@H](CCC(=O)O)C(=O)N[C@H](C(N)=O)[C@@H](C)CC)NC(=O)[C@H](Cc2c[nH]c4ccccc24)NC(=O)[C@H](CC(C)C)NC(=O)[C@H](CCCCN)NC3=O)NC1=O [compound 449] | – | – | – | – | IC50 (hNav1.7 [2]; tonic block): 1.5 nM; IC50 (hNav1.4; tonic block): 166 nM; IC50 (hNav1.5; tonic block): 1550 nM
